# Laboratory results as given in patent US9821026B2, “Use of RET agonist molecules for haematopoietic stem cell expansion protocols and transplantation therapy and a RET agonist kit” (Instituto de Medicina Molecular, priority 2012, dated 2017).
# Experiments:
# E14.5 LSK cells = experiment: Survival (AnnexinV) of LSK/HSC cells cultured with GFL/GFRα; format: cell-based, mouse; conditions: versus conventional medium / medium alone, FIG. 3d-e, FIG. 10c
# Description: (§1) 10^6 E14.5 WT Lin^negcKit^pos cells were cultured in DMEM and starved for 2 hours. To test CREB phosphorilation upon GFL stimulation Lin^negcKit^poscells were stimulated 1 hour with 500 ng/ml of each GFL and co-receptor. LSK cells were purified by flow cytometry and stimulated overnight with GFL/GFRα combinations in order to determine Bcl2 and Bcl2l1 expression levels. For inhibition experiments cells were incubated 2 hours prior GFLs stimulation, to test CREB phosphorilation, or during overnight stimulation with GFLs, to determine Bcl2 and Bcl2l1 expression levels, with SB 202190 and PD98,059 from Sigma-Aldrich or Akt1/2, Akt Inhibitor VIII and CBP-CREB Interaction Inhibitor from Calbiochem. Lin^negcKit^pos cells were stimulated with GFL/GFRα for 120 hours and 2.5×10^5 CD45.2^posLin^negcKit^pos cells were sequentially analysed by flow cytometry and transplanted into lethally irradiated hosts with a radio-protective dose 2.5×10^5 CD45.1 BM cells. To detect Annexin V, 4×10^4 E14.5 WT or Ret^−/−Lin^negckit^pos cells per well were cultured overnight in DMEM alone or with GFL/GFRα. When analysed by flow cytometry haematopoietic progenitors were further stained with an LSK antibody cocktail.
# RET [1] = experiment: Flow cytometry of kinase/CREB phosphorylation in LSK cells upon GFL stimulation; format: cell-based, mouse; conditions: GFLs for 1 h, FIG. 3g
# Description: Intracellular stainings were done using BrdU Flow Kit and anti-BrdU (3D4), 7AAD, anti-Ki-67 (B56), anti-S6 (pS235/pS236) (N7-548) and anti-Akt (pT308) (JI-223.371) from BD Pharmingen, anti-human RET (132507) from R&D Systems, anti-PIP3 (Z-P345) from Echelon Biosciences, anti-CREB (pS133) (87G3), anti-p38 (pT180/Y182) (28B10), anti-Akt (pS473) (D9E) and anti-ERK1/2 (pT202/pY204) (D13.14.4E) from Cell Signaling Technology.
# 10^6 E14.5 WT Lin^negcKit^pos cells were cultured in DMEM and starved for 2 hours. To test CREB phosphorilation upon GFL stimulation Lin^negcKit^poscells were stimulated 1 hour with 500 ng/ml of each GFL and co-receptor. LSK cells were purified by flow cytometry and stimulated overnight with GFL/GFRα combinations in order to determine Bcl2 and Bcl2l1 expression levels. […] Lin^negcKit^pos cells were stimulated with GFL/GFRα for 120 hours and 2.5×10^5 CD45.2^posLin^negcKit^pos cells were sequentially analysed by flow cytometry and transplanted into lethally irradiated hosts with a radio-protective dose 2.5×10^5 CD45.1 BM cells. […] When analysed by flow cytometry haematopoietic progenitors were further stained with an LSK antibody cocktail.
# RET [2] = experiment: Bcl2 and Bcl2l1 expression (RT-PCR) in LSK cells upon GFL treatment; format: cell-based, mouse; conditions: overnight GFL/GFRα stimulation; FIG. 3h
# Description: as §1, with “To detect Annexin V, 4×10^4 E14.5 WT or Ret^−/−Lin^negckit^pos cells per well were cultured overnight in DMEM alone or with GFL/GFRα.” left out
# Real-time PCR analysis: RNA was extracted from cell suspension using RNeasy Mini Kit or RNeasy Micro Kit (Qiagen). […] Variance was analyzed using F-test. […] Kaplan-Meier survival curves were analyzed using a log rank test. […]
# lethally irradiated mice = experiment: Competitive transplantation of GFL pre-treated progenitors into lethally irradiated hosts; format: in vivo, mouse; conditions: FIG. 4e-g
# Description: Mice: C57BL/6J (CD45.2 and CD45.1), Rag1^−/− (CD45.2 and CD45.1)^29, Vav1-iCre^11, Gfra1^−/−22, Gfra2^−/−24, Gfra3^−/−23, Ret^MEN2B20 and Ret^−/−9 were on a C57BL/6J genetic background. All mice strains were bred and maintained at IMM animal facility. Animal procedures were performed in accordance to national and institutional guidelines. Generation of Ret Conditional Knockout Mice: To generate mice harbouring a conditional Ret knock-out allele we engineered a targeting construct that firstly, included the introduction of a floxed 2.1 kb, Neomycin resistance (Neo^r) cassette under the control of the phosphoglycerate kinase-1 (PGK) promoter and a polyA tail (pA). This cassette (PGK-NEO^r-pA) was inserted approximately 4.5 kb upstream at the Xho I site of the pBluescript KS (pBS KS) vector that carried approximately 13 kb of the 5′ end of mouse Ret genomic locus flanking exon 1. […] Colony-Forming Units Assays: 5×10^3 E14.5 Lin^negcKit^pos cells MACS purified (MiltenyiBiotec) from WT, Ret^−/− or Ret^MEN2B were cultured in M3434 (Stem Cell Technologies) and scored at day 8 to 10 by flow cytometry and microscope analysis. 3×10^4 E14.5 Lin^negcKit^pos cells were MACS (MiltenyiBiotec) purified from WT, Ret^−/− or Ret^MEN2B and were injected into lethally irradiated mice (9Gy) and CFUs scored after 8 to 10 days by flow cytometry and microscope analysis. […]
# HSCs = experiment: HSC expansion in culture with RET ligands (recovered LSKs and HSCs treated with GFLs for 4 days); format: cell-based, mouse; conditions: for HSC expansion in culture (true HSCs recovered): versus conventional medium only, FIG. 3d
substance,measurement,setting,value
glial cell-line derived neurotrophic factor (GDNF) ligands [GFLs],LSK and HSC survival in culture,E14.5 LSK cells,efficiently increased LSK and HSC survival
same,LSK and HSC survival in culture,E14.5 LSK cells; listed as RET ligands,survive almost three times better
same,"ERK1/2, PI3K/Akt phosphorylation in LSKs",RET [1],stable
same,p38/MAP kinase and CREB phosphorylation in LSKs,RET [1]; FIG. 10e,rapid p38/MAP kinase and CREB phosphorylation
same,Bcl2/Bcl2l1 expression by LSKs,RET [2],increased Bcl2/Bcl2l1 expression
same,transplantation fitness and HSC engraftment,"lethally irradiated mice; E14.5 LSKs treated with GFLs, transplanted with competitor CD45.1 BM, versus untreated",strikingly increased transplantation fitness and HSC engraftment
same,increase in transplantation efficiency of expanded HSCs,lethally irradiated mice; versus HSCs expanded in conventional medium,circa 300 fold
same,differentiation of cells in expansion culture,HSCs; RET agonist treatment,do not alter the differentiation of cells
same,HSC expansion in culture (true HSCs recovered),HSCs; listed as RET agonist,three times more true HSCs
same,HSC expansion in culture (true HSCs recovered),HSCs; listed as RET ligands,three times higher
same,number of cells recovered in expansion culture,HSCs; versus current conventional medium,duplicate the number or cells recovered
same,increase of bona fide HSCs that maintain their stemness,HSCs; versus current state-of-the-art expansion methods,20 fold
